Reference: patent publication US20260014125A1, “BICYCLIC-TYPE MAT2A INHIBITOR AND USE THEREOF” (HAIHE BIOPHARMA CO., LTD., priority 2022, published 2026)

target: MAT2A (Homo sapiens (Human), UniProt P31153); assay: Biochemical test: inhibition of MAT2A enzyme activity (phosphate detection, OD620); settings: MAT2A his-tag; 150 minutes enzymatic reaction
Source text: Experimental principle: MAT2A can catalyze the conversion of L-methionine and ATP into SAM, inorganic phosphate, and inorganic diphosphate. By adding a chromogenic reagent to the enzymatic reaction system, the content of inorganic phosphates in a sample can be quantitatively detected, thereby characterizing the enzymatic activity of MAT2A.
Experimental material: Tris (Life Science #0497); BSA (Sigma #); MAT2A his-tag (BPS #71401-1); 384 well plate (Corning #3765); L-methionine (Admas #1100469); ATP (Sigma #A7699); MgCl2 (Sigma #M8266); KCl (Sigma #7447-40-7); Brij35 (Sigma #B4184); EDTA (Sigma #E1644)
1. 1×Assaybuffer (buffer composition: Tris, KCl, MgCl2, BSA, Brij35, and EDTA; the solvent was ultrapure water) was prepared. MAT2A his-tag enzyme solution (containing 1.3 μL of MAT2A enzyme and 998.7 μL of 1×Assaybuffer per 1000 μL) and substrate mixed solution (containing 5 μL of ATP, 1.3 μL of L-methionine, and 993.7 μL of 1×Assaybuffer per 1000 μL) were prepared using 1×AssayBuffer.
2. Preparation of compound concentration gradient: The test compound was tested with a starting concentration of 10 μM, and 10 equimolar concentrations were set according to a 3-fold dilution. Specifically, firstly, the compound was diluted into 10 different concentrations of series solutions in a 384 well plate (with final detection concentrations of 10, 3.33, 1.11, 0.37, 0.123, 0.041, 0.0137, 0.0046, 0.0015, and 0.0005 μM), and then 250 nL of the above series solutions was transferred to the 384 well reaction plate using an ultrasonic pipetting system Echo550 for later use. 250 nL of 100% DMSO was added into a negative control well and a positive control well, respectively. Double well test.
3. 15 μL of MAT2A his-tag enzyme solution was added into both the compound well and the positive control well; and 15 μL of 1×Assaybuffer was added into the negative control well.
4. The 384 well plate reaction plate was centrifuged at 1000 rpm for 60 seconds, shaken, mixed well, and incubated for 15 minutes. 10 μL of substrate mixed solution was added into each experimental well of the 384 well reaction plate to initiate the reaction.
5. The 384 well reaction plate was centrifuged at 1000 rpm for 60 seconds, shaken, mixed well, and incubated for 150 minutes.
6. 50 μL of enzyme reaction termination solution Biomol was added into all experimental wells of the 384 well reaction plate to terminate the reaction, centrifuged at 1000 rpm for 60 seconds, and incubated for 15 minutes. OD620 was read and data was processed.
Data analysis: the inhibition rate (%) of the compound was calculated and fitted to obtain the IC50 of the tested compound. Calculation method for compound inhibition rate: Compound inhibition rate (%)=(OD620_max−OD620_stample)/(OD620_max−OD620_min)×100, wherein OD620_stample was the absorbance value of the sample well; OD620 min was the absorbance value of the positive control well, indicating the reading of the wells without enzyme activity; and OD620_max was the absorbance value of the negative control well, indicating the reading of the well without compound inhibition.

Chain of MAT2A (P31153 whole entry): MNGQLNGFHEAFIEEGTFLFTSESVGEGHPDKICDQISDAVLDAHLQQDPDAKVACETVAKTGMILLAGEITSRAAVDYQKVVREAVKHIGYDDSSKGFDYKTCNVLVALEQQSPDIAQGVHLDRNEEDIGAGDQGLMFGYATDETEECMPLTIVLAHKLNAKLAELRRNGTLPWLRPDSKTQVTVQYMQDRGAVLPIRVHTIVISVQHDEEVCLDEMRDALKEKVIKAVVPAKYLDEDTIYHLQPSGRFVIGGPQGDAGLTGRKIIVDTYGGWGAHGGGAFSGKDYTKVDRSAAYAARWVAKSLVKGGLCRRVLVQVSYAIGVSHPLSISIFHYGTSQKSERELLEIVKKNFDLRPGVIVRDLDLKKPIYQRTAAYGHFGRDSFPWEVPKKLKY

SMILES	IC50 [nM]
CCOc1c(-c2ccc(OC(F)F)cc2)c(=O)n(-c2cnc3nn(C)cc3c2)c2[nH]ncc12 [Compound 40]	55.8
CCOc1c(-c2ccc(Cl)cc2)c(=O)n(-c2ccc3c(cnn3CCN(C)C)c2)c2[nH]ncc12 [Compound 131]	36.2
Cn1cc2cc(-n3c(=O)c(-c4ccc(Cl)cc4)c(OCCO)c4cn[nH]c43)ccc2n1 [Compound 59]	20.7
CCOc1c(-c2ccc(Cl)cc2)c(=O)n(-c2ccc3nnn(C)c3c2)c2nn(C)cc12 [Compound 140]	13
CCCc1c(-c2ccc(Cl)cc2)c(=O)n(-c2ccc3nn(C)cc3c2)c2[nH]ncc12 [Compound 112]	18.3
CCOc1c(-c2ccc(Cl)cc2)c(=O)n(-c2ccc3nn(C)nc3n2)c2nn(C)cc12 [Compound 138]	50.7
CCSc1c(-c2ccc(Cl)cc2)c(=O)n(-c2ccc3nn(C)cc3c2)c2[nH]ncc12 [Compound 130]	11.2
CCOc1c(-c2ccc(Cl)cc2)c(=O)n(-c2ccc3nn(C)cc3c2)c2cnn(C)c12 [Compound 100]	62.4
CCOc1c(-c2cccc(OC)c2)c(=O)n(-c2ccc3nn(C)cc3c2)c2[nH]ncc12 [Compound 18]	22.9
Cn1cnc2ccc(-n3c(=O)c(-c4ccc(OC(F)F)cc4)c(OCC4CC4)c4cn[nH]c43)cc21 [Compound 32]	14.6
CCOc1c(-c2ccc(Cl)cc2)c(=O)n(-c2ccc3nn(C)cc3c2)c2nn(CCO)cc12 [Compound 122]	27.7
Cc1ccc(-c2c(OCC(F)(F)F)c3cn[nH]c3n(-c3ccc4nn(C)cc4n3)c2=O)cn1 [Compound 89]	16
CCOc1c(-c2ccc(C)cc2)c(=O)n(-c2ccc3nn(C)cc3n2)c2[nH]ncc12 [Compound 133]	27.4
COCCOc1c(-c2ccc(Cl)cc2)c(=O)n(-c2ccc3nn(C)cc3c2)c2[nH]ncc12 [Compound 60]	14.2
CCOc1c(-c2ccc(Cl)cc2)c(=O)n(-c2ccc3nn(C)cc3c2)c2cn(C)nc12 [Compound 56]	24.4
CCOc1c(-c2ccc(C)nc2)c(=O)n(-c2ccc3nn(C)cc3c2)c2[nH]ncc12 [Compound 48]	16.3
[2H]C([2H])([2H])C([2H])([2H])Oc1c(-c2ccc(Cl)cc2)c(=O)n(-c2ccc3nn(C)cc3c2)c2[nH]ncc12 [Compound 142]	10.3
CCOc1c(-c2ccc(Cl)cc2)c(=O)n(-c2ccc3nn(C)nc3c2)c2nn(C)cc12 [Compound 136]	17.9
CCOc1c(-c2ccc(Cl)cc2)c(=O)n(-c2ccn3nc(C)cc3n2)c2[nH]ncc12 [Compound 116]	335

More lines, now with the values ahead:

IC50 [nM]	SMILES
708	CCNc1c(-c2ccc(OC)cc2)c(=O)n(-c2ccc(C#N)cc2)c2[nH]ncc12 [Compound 6]
15	Cn1cc2cc(-n3c(=O)c(-c4ccc(OC(F)F)cc4)c(OCC4CC4)c4cn[nH]c43)ccc2n1 [Compound 39]
> 10000	CCNc1c(-c2ccc(Cl)cc2)c(=O)n(-c2ccc3c(c2)ncn3C)c2[nH]ncc12 [Compound 16]
22.1	CCOc1c(-c2ccc(Cl)cc2)c(=O)n(-c2ccc3ncn(CC)c3c2)c2[nH]ncc12 [Compound 34]
17.4	CCOc1c(-c2ccc(C)nc2)c(=O)n(-c2ccc3nn(CC)cc3c2)c2[nH]ncc12 [Compound 101]
120	CCOc1c(-c2ccc(OC(F)F)cc2)c(=O)n(-c2ccc3nn(C)cc3c2)c2c1cnn2C [Compound 31]
20.3	CCOc1c(-c2ccc(C)nc2)c(=O)n(-c2ccc3nn(C)cc3n2)c2[nH]ncc12 [Compound 86]
376	CCOc1c(-c2ccc(Cl)cc2)c(=O)n(-c2ccc3c(cnn3CCN(C)C)n2)c2[nH]ncc12 [Compound 139]
67.3	CCOc1c(-c2ccc(Cl)cc2)c(=O)n(-c2ccn3nccc3c2)c2[nH]ncc12 [Compound 114]
16	CCOc1c(-c2ccc(C#N)cc2)c(=O)n(-c2ccc3nn(C)cc3c2)c2[nH]ncc12 [Compound 65]
45.3	CCOc1c(-c2ccc(=O)[nH]c2)c(=O)n(-c2ccc3nn(C)cc3c2)c2[nH]ncc12 [Compound 125]
